≈ marks a conversion by molar mass, not a printed value. Like-named read-outs stand apart in the source and are kept apart here.
Assays:
[1] = Acute toxicity test (LD50), Litchfield-Wilcoxon method; conditions: mouse, in vivo, ip, male ICR mice, 14 days
Experimental: Acute toxicity test (LD50): Litchfield-Wilcoxon method.
6 weeks old ICR mice(male 30±2.0 g) were fed freely with solid feed and water at room temperature, 23±1° C. and at humidity 60±5%. Sample drugs were injected into the abdominal cavities of mice, while each group comprises 6 mice. Observed during 14 days, external appearances and life or dead were recorded, and then, visible pathogenies were observed from dead animals by dissection. LD50 value was calculated by Litchfiled-wilcoxon method.

[2] = system: A549 (human non-small lung cell); experiment: SRB assay, in vitro antitumor effect against A549; assay type: cell-based; conditions: Homo sapiens
Outline: (§1)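 Cells were seeded at 5×10^3 ~2×10^4 per well, grown 24 h at 37° C in 5% CO2, then exposed for 48 h to compound in medium with final DMSO below 0.5%. TCA-fixed, 0.4% SRB-stained cells were read at 520 nm; response was 100×(T-Tz)/(C-Tz) if T≥Tz, else 100×(T-Tz)/Tz.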

XF 498 (human CNS) = experiment: SRB assay, in vitro antitumor effect against XF 498; assay type: cell-based; conditions: Homo sapiens, XF498; XF-498, 48 hours; read-out: ED50 (the source's name)
Outline: as §1

SKMEL-2 (human melanoma) = experiment: SRB assay, in vitro antitumor effect against SKMEL-2; assay type: cell-based; conditions: Homo sapiens; SK-MEL-2, 48 hours; read-out: ED50 (the source's name)
Outline: as §1

HCT-15 (human colon) = experiment: SRB assay, in vitro antitumor effect against HCT-15; assay type: cell-based; conditions: Homo sapiens; HCT 15, 48 hours; read-out: ED50 (the source's name)
Outline: as §1

SKOV-3 (human ovarian) = experiment: SRB assay, in vitro antitumor effect against SKOV-3; assay type: cell-based; conditions: Homo sapiens; SK-OV-3, 48 hours; read-out: ED50 (the source's name)
Outline: as §1

[3] = system: mouse leukemia P388 cells; experiment: In vivo antitumor effects against mouse leukemia P388 cells in BDF1 mice; conditions: P388, ip, abdominal cavity
Experimental: In vivo antitumor effects against mouse leukemia P388 cells.
1) Leukemia P388 cells being transfer-cultured successively in DBA/2 mouse, were grafted into each mouse of a group comprising 8 mice of 6 week old BDF1 mouse with the dose of 1×10^6 cells/0.1 ml. […]
3) With observation everyday, survival times of tested mice were measured. Antitumor activities was determined in such a manner that the increasing ratio(T/C%) of average survival days of drug-treated groups compared with the control group was calculated using the mean survival times of each tested groups.

[4] = A549, 48 hours, read-out: ED50 (the source's name)
[5] = nine everyday, read-out: T/C(%)
[6] = on days 1, 5, 9, read-out: T/C(%)
[7] = on days 1, 4, 8, read-out: T/C(%)

COc1nc(C)c(C)cc1NC(=S)N1CCN(c2cc(C)cc(C)c2)CC1 [Example 22, 1-[(5,6-Dimethyl-2-methoxypyridin-3-yl)aminothiocarbonyl]-4-(3,5-dimethylphenyl)piperazine]
LD50 at 336 h [1]: > 2000 mg/kg | IC50 [2, 4]: 0.0009 µg/mL (≈ 0.00234 µM) | IC50 (XF 498 (human CNS)): 0.0053 µg/mL (≈ 0.0138 µM) | IC50 (SKMEL-2 (human melanoma)): 0.027 µg/mL (≈ 0.0702 µM) | IC50 (HCT-15 (human colon)): 0.01 µg/mL (≈ 0.026 µM) | IC50 (SKOV-3 (human ovarian)): 0.006 µg/mL (≈ 0.0156 µM) | response vs control in vivo at 25 mg/kg [3, 5]: 110% | response vs control in vivo at 50 mg/kg [3, 5]: 140% | response vs control in vivo at 100 mg/kg [3, 5]: 150%

COc1cc(OC)cc(N2CCN(C(=O)Nc3cc(C(C)O)c(C)nc3OC)CC2)c1 (centres unmarked) [Example 56, 1-{[5-(1-Hydroxyethyl)-2-methoxy-6-methylpyridin-3-yl]aminocarbonyl}-4-(3,5-dimethoxyphenyl)piperazine]
LD50 at 336 h [1]: 410 mg/kg | IC50 [2, 4]: 0.017 µg/mL (≈ 0.0395 µM) | IC50 (XF 498 (human CNS)): 0.013 µg/mL (≈ 0.0302 µM) | IC50 (SKMEL-2 (human melanoma)): 0.01 µg/mL (≈ 0.0232 µM) | IC50 (HCT-15 (human colon)): 0.045 µg/mL (≈ 0.105 µM) | IC50 (SKOV-3 (human ovarian)): 0.0027 µg/mL (≈ 0.00627 µM) | response vs control in vivo at 10 mg/kg [3, 5]: 140% | response vs control in vivo at 25 mg/kg [3, 5]: 145% | response vs control in vivo at 50 mg/kg [3, 5]: 165% | response vs control in vivo at 50 mg/kg [3, 6]: 118% | response vs control in vivo at 100 mg/kg [3, 6]: 141% | response vs control in vivo at 200 mg/kg [3, 6]: 227%

C=Cc1cc(NC(=O)N2CCN(c3cc(OC)cc(OC)c3)CC2)c(OC)nc1C [Example 73, 1-[(2-Methoxy-6-methyl-5-vinylpyridin-3-yl)aminocarbonyl]-4-(3,5-dimethoxyphenyl)piperazine]
LD50 at 336 h [1]: 250 mg/kg | IC50 [2, 4]: 0.01 µg/mL (≈ 0.0242 µM) | IC50 (XF 498 (human CNS)): 0.013 µg/mL (≈ 0.0315 µM) | IC50 (SKMEL-2 (human melanoma)): 0.02 µg/mL (≈ 0.0485 µM) | IC50 (HCT-15 (human colon)): 0.012 µg/mL (≈ 0.0291 µM) | IC50 (SKOV-3 (human ovarian)): 0.0054 µg/mL (≈ 0.0131 µM) | response vs control in vivo at 10 mg/kg [3, 5]: 140% | response vs control in vivo at 25 mg/kg [3, 5]: 150% | response vs control in vivo at 50 mg/kg [3, 5]: 180%

C=Cc1cc(NC(=O)N2CCN(c3cc(C)cc(C)c3)CC2)c(OC)nc1C [Example 74, 1-[(2-Methoxy-6-methyl-5-vinylpyridin-3-yl)aminocarbonyl]-4-(3,5-dimethylphenyl)piperazine]
LD50 at 336 h [1]: 361 mg/kg | IC50 [2, 4]: 0.016 µg/mL (≈ 0.0421 µM) | IC50 (XF 498 (human CNS)): 0.026 µg/mL (≈ 0.0683 µM) | IC50 (SKMEL-2 (human melanoma)): 0.02 µg/mL (≈ 0.0526 µM) | IC50 (HCT-15 (human colon)): 0.021 µg/mL (≈ 0.0552 µM) | IC50 (SKOV-3 (human ovarian)): 0.0138 µg/mL (≈ 0.0363 µM) | response vs control in vivo at 10 mg/kg [3, 5]: 140% | response vs control in vivo at 25 mg/kg [3, 5]: 150% | response vs control in vivo at 50 mg/kg [3, 5]: 250%

COc1cc(OC)cc(N2CCN(C(=O)Nc3cc4ccccc4nc3OC)CC2)c1 [Example 81, 1-[(2-Methoxyquinolin-3-yl)aminocarbonyl]-4-(3,5-dimethoxyphenyl)piperazine]
LD50 at 336 h [1]: 1600 mg/kg | IC50 ([2]; A549, 48 h, read-out: ED50): 0.0032 µg/mL (≈ 0.00757 µM) | IC50 (XF 498 (human CNS)): 0.0097 µg/mL (≈ 0.023 µM) | IC50 (SKMEL-2 (human melanoma)): 0.0107 µg/mL (≈ 0.0253 µM) | IC50 (HCT-15 (human colon)): 0.0054 µg/mL (≈ 0.0128 µM) | IC50 (SKOV-3 (human ovarian)): 0.0007 µg/mL (≈ 0.00166 µM) | response vs control in vivo at 10 mg/kg [3, 5]: 140% | response vs control in vivo at 25 mg/kg [3, 5]: 140% | response vs control in vivo at 50 mg/kg [3, 5]: 210% | response vs control in vivo at 50 mg/kg [3, 6]: 127% | response vs control in vivo at 100 mg/kg [3, 6]: 146% | response vs control in vivo at 200 mg/kg [3, 6]: 218%

COc1nc2ccccc2cc1NC(=O)N1CCN(c2cc(C)cc(C)c2)CC1 [Example 82, 1-[(2-Methoxyquinolin-3-yl)aminocarbonyl]-4-(3,5-dimethylphenyl)piperazine]
LD50 at 336 h [1]: 700 mg/kg | IC50 [2, 4]: 0.0676 µg/mL (≈ 0.173 µM) | IC50 (XF 498 (human CNS)): 0.0479 µg/mL (≈ 0.123 µM) | IC50 (SKMEL-2 (human melanoma)): 0.0754 µg/mL (≈ 0.193 µM) | IC50 (HCT-15 (human colon)): 0.0346 µg/mL (≈ 0.0886 µM) | IC50 (SKOV-3 (human ovarian)): 0.0249 µg/mL (≈ 0.0638 µM) | response vs control in vivo at 50 mg/kg [3, 6]: 100% | response vs control in vivo at 100 mg/kg [3, 6]: 127%

COc1cc(C)c(C)cc1NC(=O)N1CCN(c2cc(C)cc(C)c2)CC1 [Example 172, 1-[(4,5-Dimethyl-2-methoxyphenyl)aminocarbonyl]-4-(3,5-dimethylphenyl)piperazine]
LD50 at 336 h [1]: 723 mg/kg | IC50 [2, 4]: 0.0047 µg/mL (≈ 0.0128 µM) | IC50 (XF 498 (human CNS)): 0.0086 µg/mL (≈ 0.0234 µM) | IC50 (SKMEL-2 (human melanoma)): 0.0233 µg/mL (≈ 0.0634 µM) | IC50 (HCT-15 (human colon)): 0.018 µg/mL (≈ 0.049 µM) | IC50 (SKOV-3 (human ovarian)): 0.0097 µg/mL (≈ 0.0264 µM) | response vs control in vivo at 50 mg/kg [3, 7]: 118% | response vs control in vivo at 100 mg/kg [3, 7]: 127% | response vs control in vivo at 200 mg/kg [3, 7]: 191%
